Test results as given in patent publication US6372446B1, “Method of selectively determining a fungal biomass” (Mycometer ApS, priority 1997, dated 2002).

Columns and labels:
Experiment in all cases: Screening of fungi for enzyme activity with 4-methylumbelliferone-labelled substrates
Format in all cases: cell-based
[1] = tested on: Aspergillus oryzae (AGM 11); conditions: substrate 10 μM, 25° C., pH 5; for Enzyme activity: amount of released 4-methylumbelliferone: mineral medium; for Enzyme activity: amount of released 4-methylumbelliferone during 5 hours of incubation: vegetable juice medium
[2] = tested on: Schizophyllum commune (AGM 25); conditions: substrate 10 μM, 25° C., pH 5; for Enzyme activity: amount of released 4-methylumbelliferone: mineral medium; for Enzyme activity: amount of released 4-methylumbelliferone during 5 hours of incubation: vegetable juice medium
[3] = tested on: Aureobasidium pullulans (QM 3092); conditions: substrate 10 μM, 25° C., pH 5; for Enzyme activity: amount of released 4-methylumbelliferone during 5 hours of incubation: Aureobasidium pulluians (QM 3092), vegetable juice medium; for Enzyme activity: amount of released 4-methylumbelliferone: Aureobasidium pullulans (QM 3092), mineral medium
[4] = tested on: Cladosporium herbarum (AGM 8); conditions: substrate 10 μM, 25° C., pH 5; for Enzyme activity: amount of released 4-methylumbelliferone: mineral medium; for Enzyme activity: amount of released 4-methylumbelliferone during 5 hours of incubation: vegetable juice medium
[5] = tested on: Mucor racemosus (AAS 310); conditions: substrate 10 μM, 25° C., pH 5; for Enzyme activity: amount of released 4-methylumbelliferone: mineral medium; for Enzyme activity: amount of released 4-methylumbelliferone during 5 hours of incubation: vegetable juice medium
[6] = tested on: Trametes versicolor (AGM 24); conditions: substrate 10 μM, 25° C., pH 5; for Enzyme activity: amount of released 4-methylumbelliferone: mineral medium; for Enzyme activity: amount of released 4-methylumbelliferone during 5 hours of incubation: vegetable juice medium
[7] = tested on: Ascobolus crenulatus (AAS 1); conditions: substrate 10 μM, 25° C., pH 5; for Enzyme activity: amount of released 4-methylumbelliferone: mineral medium; for Enzyme activity: amount of released 4-methylumbelliferone during 5 hours of incubation: vegetable juice medium
[8] = tested on: Penicillium commune (IBT 13713); conditions: substrate 10 μM, 25° C., pH 5; for Enzyme activity: amount of released 4-methylumbelliferone: mineral medium; for Enzyme activity: amount of released 4-methylumbelliferone during 5 hours of incubation: vegetable juice medium
[9] = tested on: Sodaria fimicola (AAS 17); conditions: substrate 10 μM, 25° C., pH 5; for Enzyme activity: amount of released 4-methylumbelliferone: mineral medium; for Enzyme activity: amount of released 4-methylumbelliferone during 5 hours of incubation: vegetable juice medium
[10] = tested on: Paecilomyces farinosus (AGM 5); conditions: substrate 10 μM, 25° C., pH 5; for Enzyme activity: amount of released 4-methylumbelliferone: mineral medium; for Enzyme activity: amount of released 4-methylumbelliferone during 5 hours of incubation: vegetable juice medium
[11] = tested on: Eurotium sp. (AAS 36); conditions: substrate 10 μM, 25° C., pH 5; for Enzyme activity: amount of released 4-methylumbelliferone: mineral medium; for Enzyme activity: amount of released 4-methylumbelliferone during 5 hours of incubation: vegetable juice medium
[12] = tested on: Aspergillus versicolor (IBT 13738); conditions: substrate 10 μM, 25° C., pH 5; for Enzyme activity: amount of released 4-methylumbelliferone: mineral medium; for Enzyme activity: amount of released 4-methylumbelliferone during 5 hours of incubation: vegetable juice medium
[13] = tested on: Rhizomucor pusillus (AAS 300); conditions: substrate 10 μM, 25° C., pH 5; for Enzyme activity: amount of released 4-methylumbelliferone: mineral medium; for Enzyme activity: amount of released 4-methylumbelliferone during 5 hours of incubation: vegetable juice medium
[14] = tested on: Penicillium solitum (IBT 13771); conditions: substrate 10 μM, 25° C., pH 5; for Enzyme activity: amount of released 4-methylumbelliferone: mineral medium; for Enzyme activity: amount of released 4-methylumbelliferone during 5 hours of incubation: vegetable juice medium

Row | SMILES | Enzyme activity: amount of released 4-methylumbelliferone [1] [µmol] | Enzyme activity: amount of released 4-methylumbelliferone during 5 hours of incubation [1] | Enzyme activity: amount of released 4-methylumbelliferone [2] [µmol] | Enzyme activity: amount of released 4-methylumbelliferone during 5 hours of incubation [2] | Enzyme activity: amount of released 4-methylumbelliferone during 5 hours of incubation [3] | Enzyme activity: amount of released 4-methylumbelliferone [3] | Enzyme activity: amount of released 4-methylumbelliferone [4] [µmol] | Enzyme activity: amount of released 4-methylumbelliferone during 5 hours of incubation [4] [µmol] | Enzyme activity: amount of released 4-methylumbelliferone [5] [µmol] | Enzyme activity: amount of released 4-methylumbelliferone during 5 hours of incubation [5] | Enzyme activity: amount of released 4-methylumbelliferone [6] [µmol] | Enzyme activity: amount of released 4-methylumbelliferone during 5 hours of incubation [6] | Enzyme activity: amount of released 4-methylumbelliferone [7] [µmol] | Enzyme activity: amount of released 4-methylumbelliferone during 5 hours of incubation [7] | Enzyme activity: amount of released 4-methylumbelliferone [8] [µmol] | Enzyme activity: amount of released 4-methylumbelliferone during 5 hours of incubation [8] | Enzyme activity: amount of released 4-methylumbelliferone [9] [µmol] | Enzyme activity: amount of released 4-methylumbelliferone during 5 hours of incubation [9] | Enzyme activity: amount of released 4-methylumbelliferone [10] [µmol] | Enzyme activity: amount of released 4-methylumbelliferone during 5 hours of incubation [10] [µmol] | also measured
1 | Cc1cc(=O)oc2cc(OC3OC(CO)C(O)C(O)C3O)ccc12 [substrate 5, 4-methylumbelliferyl α-D-mannopyranoside] | 0 | *** (2 ≦ ***) | 0 | ** (1 ≦ ** 2) | ** (1 ≦ ** 2) | 0 µmol | 0 | 0 | 0 | * (0.4 ≦ * < 1) | 0 | * (0.4 ≦ * < 1) | 0 | 0 µmol | 0 | * (0.4 ≦ * < 1) | 0 | *** (2 ≦ ***) | 0 | 0 | Enzyme activity: amount of released 4-methylumbelliferone [11]: 0 µmol; Enzyme activity: amount of released 4-methylumbelliferone during 5 hours of incubation [11]: * (0.4 ≦ * < 1); Enzyme activity: amount of released 4-methylumbelliferone [12]: 0 µmol; Enzyme activity: amount of released 4-methylumbelliferone during 5 hours of incubation [12]: 0 µmol; Enzyme activity: amount of released 4-methylumbelliferone [13]: 0 µmol; Enzyme activity: amount of released 4-methylumbelliferone during 5 hours of incubation [13]: *** (2 ≦ ***); Enzyme activity: amount of released 4-methylumbelliferone [14]: 0 µmol; Enzyme activity: amount of released 4-methylumbelliferone during 5 hours of incubation [14]: 0 µmol
2 | Cc1cc(=O)oc2cc(O[C@@H]3O[C@H](CO)[C@@H](O)[C@H](O)[C@@H]3O)ccc12 [substrate 6, 4-methylumbelliferyl β-D-mannopyranoside] | 0 | *** (2 ≦ ***) | 0 | *** (2 ≦ ***) | ** (1 ≦ ** 2) | 0 µmol | 0 | 0 | 0 | ** (1 ≦ ** 2) | 0 | 0 µmol | 0 | * (0.4 ≦ * < 1) | 0 | * (0.4 ≦ * < 1) | 0 | *** (2 ≦ ***) | 0 | 0 | Enzyme activity: amount of released 4-methylumbelliferone [11]: 0 µmol; Enzyme activity: amount of released 4-methylumbelliferone during 5 hours of incubation [11]: 0 µmol; Enzyme activity: amount of released 4-methylumbelliferone [12]: 0 µmol; Enzyme activity: amount of released 4-methylumbelliferone during 5 hours of incubation [12]: 0 µmol; Enzyme activity: amount of released 4-methylumbelliferone [13]: 0 µmol; Enzyme activity: amount of released 4-methylumbelliferone during 5 hours of incubation [13]: 0 µmol; Enzyme activity: amount of released 4-methylumbelliferone [14]: 0 µmol; Enzyme activity: amount of released 4-methylumbelliferone during 5 hours of incubation [14]: 0 µmol
3 | Cc1cc(=O)oc2cc(O[C@H]3O[C@H](CO)[C@@H](O)[C@H](O)[C@H]3O)ccc12 [substrate 7, 4-methylumbelliferyl α-D-glucoside] | 0 | 0 µmol | 0 | 0 µmol | *** (2 ≦ ***) | *** (2 ≦ ***) | 0 | 0 | 0 | 0 µmol | 0 | 0 µmol | 0 | 0 µmol | 0 | 0 µmol | 0 | ** (1 ≦ ** 2) | 0 | 0 | Enzyme activity: amount of released 4-methylumbelliferone [11]: 0 µmol; Enzyme activity: amount of released 4-methylumbelliferone during 5 hours of incubation [11]: 0 µmol; Enzyme activity: amount of released 4-methylumbelliferone [12]: 0 µmol; Enzyme activity: amount of released 4-methylumbelliferone during 5 hours of incubation [12]: 0 µmol; Enzyme activity: amount of released 4-methylumbelliferone [13]: 0 µmol; Enzyme activity: amount of released 4-methylumbelliferone during 5 hours of incubation [13]: * (0.4 ≦ * < 1); Enzyme activity: amount of released 4-methylumbelliferone [14]: 0 µmol; Enzyme activity: amount of released 4-methylumbelliferone during 5 hours of incubation [14]: 0 µmol
